According to US20230027072A1, “IMPROVED METHODS, KITS, COMPOSITIONS AND DOSING REGIMENS FOR THE USE OF HETEROCYCLIC INHIBITORS OF ERK1 AND ERK2” (Asana Biosciences, LLC, priority 2019, published 2023):
Where two headings read alike, the source gives them in different places. One block for each molecule: values may come before it.

How the values were obtained:
[1] = tested on: HCT116 (colorectal carcinoma, K Ras G13D) cells; experiment: Cell proliferation (Alamar Blue) assay, HCT116; type: cell-based, human
Experimental: (§1) Cell Proliferation (Alamar Blue) Assay
(§2) HT-29 (colorectal carcinoma, B-RafV600E), HCT116 (colorectal carcinoma, K Ras G13D), A375 (melanoma, B-RafV600E) and SK-Mel2 (melanoma, NRAS Q61R) cells (obtained from ATCC, USA) were seeded (5000 cells/well) in 96-well tissue culture plate and incubated at 37° C./5% CO2 for 16-24 hours. The cells were then treated with compounds, at concentrations typically from 0.0005 to 10 uM prepared in 3-fold serial dilutions. The plates were then incubated for 72 h at 37° C./5% CO2 in a moist environment. Then Alamar Blue™ reagent (final concentration 1×) was added to each well and incubated for 1-3 h at 37° C./5% CO2. The plates were read on fluorescence reader at 540 nm excitation and 590 nm emission wavelengths. The IC50 values were subsequently determined using a sigmoidal dose-response curve (variable slope) using GraphPad Prism® 5 software. Compounds of the present disclosure caused inhibition of HT-29, HCT116, A375 and SK-Mel2 cell proliferation as determined in these assays.

[2] = tested on: phosphorylation of RSK1(S380) (the downstream target of ERK1/2); experiment: Mechanistic (phospho-RSK1(S380) ELISA) assay in HT-29 cells; type: cell-based, human; conditions: 2 h treatment, read-out: Mechanistic Cell Assay RSK1 Phos HT29 IC50
Experimental: Mechanistic (Phospho-RSK1(5380) ELISA) Assay
HT-29 cells (colorectal carcinoma, B-RafV600E); obtained from ATCC, USA) were seeded (60,000 cells/well) in a 96-well plate and incubated at 37° C./5% CO2 overnight and then treated with desired compound dilutions for 2 h. Medium was removed and cells were rinsed once with ice-cold 1×PBS, then 0.070 mL ice-cold 1× cell lysis buffer containing 1 mM PMSF was added to each well and the plate was incubated on a shaker for 2 h and 30 min at 4° C. The plate was then centrifuged for 20 min (×4000 rpm) at 4° C. and the supernatant was transferred to a new plate. Cell lysates were diluted with sample diluent at a ratio of 1:1. The ELISA was then carried out following the manufacturer's protocol (PathScan® phospho-RSK1(Ser380) Sandwich ELISA Kit, Cell Signaling Technologies). The plate was read at 450 nm within 30 min after adding STOP solution. The IC50 values were subsequently determined using a sigmoidal dose-response curve (variable slope) in GraphPad Prism® 5 software. Compounds of the present disclosure inhibited phosphorylation of RSK1(5380) (the downstream target of ERK1/2) as determined in this assay.

[3] = tested on: HT-29 (colorectal carcinoma, B-RafV600E) cells; experiment: Cell proliferation (Alamar Blue) assay, HT-29; type: cell-based, human; conditions: read-out: Cell Proliferation Assay HT29 IC50
Experimental: as §1, §2

ERK2 = molecular target: T1, ERK2 (Homo sapiens, UniProt P28482); experiment: ERK2 HTRF (biochemical) assay
T1 construct: purchased Jubilant Biosys
T1 sequence (P28482 whole entry): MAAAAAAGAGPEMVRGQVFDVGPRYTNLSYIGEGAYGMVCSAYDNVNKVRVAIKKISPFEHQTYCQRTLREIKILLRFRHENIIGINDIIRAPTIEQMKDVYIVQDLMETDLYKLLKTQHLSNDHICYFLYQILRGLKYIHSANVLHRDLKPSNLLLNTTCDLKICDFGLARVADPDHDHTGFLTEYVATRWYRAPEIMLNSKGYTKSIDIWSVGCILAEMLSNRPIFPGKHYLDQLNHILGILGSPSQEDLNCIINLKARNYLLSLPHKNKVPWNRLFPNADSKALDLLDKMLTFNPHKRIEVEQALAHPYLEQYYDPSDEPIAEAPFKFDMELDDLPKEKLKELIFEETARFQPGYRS
Experimental: ERK1 and ERK2 HTRF (Biochemical) Assays
The assays described below employed a homogeneous time resolved fluorescence (HTRF) technique. The compounds were serially diluted by half-log with concentrations ranging from 0.0005 to 10 uM in the assay buffer (50 mM Tris pH-7.5, 1 mM EGTA, 2 mM DTT, 10 mM MgCl2, 0.1% Tween-20) and 20 uL of substrate-ATP mix [1 uM Biotin—LC-Myelin Basic Protein (MBP) derivatized Peptide (Anaspec)-24 uM ATP (Sigma)] was added to each well of the assay plate. Then 10 uL of enzyme mix [25 nM ERK1 or ERK2 (Jubilant Biosys) in assay buffer] was added to each well. The plate was incubated at room temperature for 60 min with shaking. The HTRF mix [625 nM LANCE® Ultra Europium-anti-phospho-MBP (Perkin Elmer) and 2 nM Phycolink® Streptavidin-Allophycocyanin (SA-APC) (Prozyme) in HTRF buffer (50 mM Tris-HCl pH-7.5, 100 mM NaCl, 0.1% BSA, 0.05% Tween20, 0.5 mM EDTA)] was prepared and 75 uL of this mix was added to the HTRF plate. After incubation for 60 min at room temperature, 10 uL of the reaction mixture was transferred to the HTRF assay plate and incubated for 45 min at room temperature with shaking. Plate was read using Pherastar in HTRF mode (excitation 337 nm, emission 665 & 620 nm). The IC50 values (half maximal inhibitory concentration values) were subsequently determined using a sigmoidal dose-response curve (variable slope) in GraphPad Prism® 5 software.

[4] = Phase 1 clinical study, pharmacokinetics (Example 39); type: in vivo; conditions: human; for AUC / Cmax: plasma, oral, Day 15; for AUC: read-out: AUCtau, mean (CV %); for Cmax: read-out: Cmax, mean (CV %)
Excerpt: This human clinical study is designed to determine the maximum tolerated dose of the compound of Example 349 [S)—N-(2-Amino-1-(3-chloro-5-fluorophenyl)ethyl)-1-(5-methyl-2-((tetrahydro-2H-pyran-4-yl)amino)pyrimidin-4-yl)-1H-imidazole-4-carboxamide mandelic acid salt] and evaluate its safety, tolerability, pharmacokinetics and pharmacodynamics. This study is an open-label, non-randomized uncontrolled, multicenter, dose escalation, and cohort expansion study in subjects with histologically or cytologically confirmed advanced solid tumors for which no standard therapy exists. The compound of Example 349 was formulated as described in Example 35 above for administration to the study subjects.
Daily dosing: This part of the study was conducted using an accelerated titration design in which patients were dosed once daily in cycles of 3 weeks. The accelerated phase of the study included single-patient cohorts and escalation increases of 100% up to 80 mg/day dose cohorts in the absence of DLTs or ≥Grade 2 drug-related toxicity. In the absence of any DLTs or ≥Grade 2 drug-related toxicity, the conventional 3+3 design commenced at 80 mg/day dose level.
Weekly dosing: Once weekly dosing of subject in 3+3 escalating dose cohorts was explored as warranted by the emerging pharmacokinetics and clinical trial experience. Once weekly dose escalation increments were up to 50%, based on the absence of DLTs or ≥Grade 2 drug-related toxicity and the available tablet strengths. Initiation of escalating daily and weekly higher dose levels occurred only following safety data review and agreement by the Safety Review Committee.
Part A included and Part B will include a screening period (up to 21 days) and an estimated treatment period for up to 12 months. […] At the end of treatment, a post-treatment period of 4 weeks will commence that concludes with an end-of-study visit.
The pharmacokinetics of the compound of Example 349 was evaluated in the study subjects with solid tumors following once-daily oral administration at 10-80 mg or QW administration at 80-350 mg. […] With once-daily dosing, the accumulation in Cmax and AUCtau were approximately 2-fold based on the 40 mg data. With once-weekly administration, drug accumulation in plasma was minimal. […] Results of these pharmacokinetic studies are further illustrated in FIGS. 6 and 7, which show the plasma concentration-time profiles for the QD and QW regimens. FIGS. 6A and 6B show the plasma concentration over time for the compound of Example 349 measured on day 1 and day 15 for daily dosing at 10 mg/kg, 20 mg/kg, 40 mg/kg, 60 mg/kg and 80 mg/kg. […] FIGS. 7A and 7B show the plasma concentration over time for the compound of Example 349 measured on day 1 and day 15 for weekly dosing at 80 mg/kg, 120 mg/kg, 180 mg/kg, 250 mg/kg and 350 mg/kg.

[5] = 40 mg daily (MTD for QD regimen)
[6] = 250 mg weekly (MTD for QW regimen)

Molecule: 1-(2- (benzo[d][1,3]diox- ol-5-ylamino)-5- methylpyrimidin-4- yl)-N-(1-(4- fluorophenyl)-2- hydroxyethyl)-1H- pyrrole-3- carboxamide [Example 172]
IC50 ([1]; 72 h): 250 to 500 nM
IC50 [2]: 100 to 250 nM

IC50 ([3]; Homo sapiens, HT-29, 72 h): 100 to 250 nM
Molecule: Cc1cnc(Nc2ccc(F)cc2)cc1-n1cnc(C(=O)NC(CN)c2ccccc2)c1 (single isomer, unassigned) [Example 227, N-(2-amino-1-phenylethyl)-1-(2-((4-fluorophenyl)-amino)-5-methyl-pyridin-4-yl)-1H-imidazole-4-carboxamide]

IC50 ([1]; 72 h): 500 to 2500 nM
IC50 ([3]; 72 h): 250 to 500 nM
IC50 [2]: 250 to 500 nM
Molecule: Cc1cnc(NC2CCOCC2)nc1-n1cnc(C(=O)NC(CN)c2ccc(Cl)s2)c1 (single isomer, unassigned; enantiomer #2) [Example 291, N-(2-amino-1-(5-chlorothiophen-2-yl)ethyl)-1-(5-methyl-2-((tetrahydro-2H-pyran-4-yl)amino)pyrimidin-4-yl)-1H-imidazole-4-carboxamide (enantiomer #2)]

IC50 ([1]; 72 h): 500 to 2500 nM
Molecule: Cc1cnc(Nc2ccc(F)cc2Cl)nc1-n1ccc(C(=O)N[C@H](CO)c2cccc(Cl)c2)c1 [Compound 29, (S)-1-(2-((2-Chloro-4-fluorophenyl)amino)-5-methylpyrimidin-4-yl)-N-(1-(3-chlorophenyl)-2-hydroxyethyl)-1H-pyrrole-3-carboxamide]

IC50 (ERK2): 500 to 2500 nM
Molecule: Cc1cnc(Nc2ccc3c(c2)OC(F)(F)O3)cc1-n1cc(C(=O)NC(CN)Cc2ccccc2)nn1 (stereo not drawn) [Compound 134]

IC50 ([1]; Homo sapiens, HCT-116, 72 h): 500 to 2500 nM
IC50 ([3]; Homo sapiens, HT-29, 72 h): 250 to 500 nM
Molecule: Cc1cnc(Nc2ccc(F)cc2)cc1-n1cnc(C(=O)NC(CN)c2ccccc2)c1 (stereo not drawn) [Compound 191, N-(2-amino-1-phenylethyl)-1-(2-((4-fluorophenyl)amino)-5-methylpyridin-4-yl)-1H-imidazole-4-carboxamide]

IC50 ([1]; Homo sapiens, HCT-116, 72 h): 100 to 250 nM
IC50 ([3]; Homo sapiens, HT-29, 72 h): 100 to 250 nM
IC50 ([2]; Homo sapiens, HT-29, 2 h): ≤ 100 nM
Molecule: Cc1cnc(Nc2ccc3occc3c2)nc1-n1ccc(C(=O)NC(CO)c2cccc(Cl)c2)c1 (stereo not drawn) [Example 68, 1-(2-(benzofuran-5-ylamino)-5-methylpyrimidin-4-yl)-N-(1-(3-chlorophenyl)-2-hydroxyethyl)-1H-pyrrole-3-carboxamide]

IC50 ([1]; Homo sapiens, HCT-116, 72 h): 500 to 2500 nM
IC50 ([2]; Homo sapiens, HT-29, 2 h): 250 to 500 nM
Molecule: Cc1cnc(N[C@H]2CC[C@H](O)CC2)nc1-n1cnc(C(=O)N[C@H](CO)c2cccc(Cl)c2)c1 [Example 242, N-((S)-1-(3-chlorophenyl)-2-hydroxyethyl)-1-(2-(((1r,4S)-4-hydroxy-cyclohexyl)amino)-5-methyl-pyrimidin-4-yl)-1H-imidazole-4-carboxamide]

IC50 ([1]; 72 h): 250 to 500 nM
IC50 [2]: 100 to 250 nM
Molecule: Cc1cnc(NC2CCOCC2)nc1-n1cnc(C(=O)NC(c2cccc(Cl)c2)C(C)O)c1 (stereo not drawn) [Example 252, N-(1-(3-chlorophenyl)-2-hydroxypropyl)-1-(5-methyl-2-((tetrahydro-2H-pyran-4-yl)amino)-pyrimidin-4-yl)-1H-imidazole-4-carboxamide]

IC50 ([1]; 72 h): > 2500 nM
IC50 [2]: 500 to 2500 nM
Molecule: Cc1cnc(NC2CCOCC2)nc1-n1cnc(C(=O)NC(c2cccc(Cl)c2)C(C)O)c1 (stereo not drawn) [Example 253, N-(1-(3-chlorophenyl)-2-hydroxypropyl)-1-(5-methyl-2-((tetrahydro-2H-pyran-4-yl)amino)-pyrimidin-4-yl)-1H-imidazole-4-carboxamide]

IC50 ([2]; Homo sapiens, HT-29, 2 h): 100 to 250 nM
Molecule: Cc1cnc(NC2CCOCC2)nc1-n1cnc(C(=O)NC(CN)c2ccc(Cl)s2)c1 (stereo not drawn) [Example 274, N-(2-amino-1-(5-chlorothiophen-2-yl)ethyl)-1-(5-methyl-2-((tetrahydro-2H-pyran-4-yl)amino)pyrimidin-4-yl)-1H-imidazole-4-carboxamide]

AUCtau values, dependence on dose ([4]; in vivo): dose dependent
Cmax values, dependence on dose ([4]; in vivo): dose dependent
Total CL/F, dependence on dose ([4]; in vivo): independent of dose levels
Vd/F, dependence on dose ([4]; in vivo): independent of dose levels
Tmax ([4]; in vivo, po): 1 to 4 h
half-life ([4]; in vivo, po): ~25 h
Molecule: Cc1cnc(NC2CCOCC2)nc1-n1cnc(C(=O)N[C@H](CN)c2cc(F)cc(Cl)c2)c1 [Example 349]
AUC [4, 5]: 492 ng·h/mL
Cmax [4, 5]: 61.5 ng/mL
AUC [4, 6]: 5500 ng·h/mL
Cmax [4, 6]: 495 ng/mL

Molecule: N-(1-(3-chloro- phenyl)-2-hydroxy- ethyl)-1-(2-((3- fluoro-2-methoxy- phenyl)amion)-5- methylpyrimidin-4- yl)-1H-pyrrole-3- carboxamide [Example 143]
IC50 ([1]; 72 h): 250 to 500 nM
IC50 [2]: 250 to 500 nM

Molecule: N-((1s,3s)-1-(3- chlorophenyl)-3- hydroxycyclo- butyl)- 1-(5-methyl-2- ((tetrahydro-2H-4- yl)amino)pyrimi- din-4-yl)-1H- imidazole-4- carboxamide [Example 245]
IC50 [2]: 250 to 500 nM
